# From US9776972B2, “Pyrazole derivatives as arginine methyltransferase inhibitors and uses thereof” (priority 2013, dated 2017)
# Read-outs that look alike come from different tables or passages of the source.
# Legend:
# human PRMT6 = target: T1, human PRMT6 (Homo sapiens, UniProt Q96LA8); assay: PRMT6 Biochemical Assay (3H-SAM Flashplate, peptide substrate)
# T1 construct: Flag-PRMT6-His; made in house; host or cells: HEK 293F cells (BacMam baculovirus)
# Method in brief: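 Methylation of a biotin-tagged H4 (36-50) peptide by ³H-SAM was quantified by streptavidin Flashplate capture and scintillation counts (dpm/cpm). Before SAM/peptide addition, Flag-PRMT6-His was preincubated with compound for 30 min at room temperature in Bicine buffer, pH 7.6.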
# [1] = test system: mono-methyl arginine in RKO cells; assay: RKO Methylation Assay, In Cell Western (ICW) for mono-methyl arginine and DNA content; type: cell-based; details: for EC30: Homo sapiens, RKO, 72 h; for EC30 (In Cell Western data): class symbols
# Method in brief: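 After fixation, mono-methyl arginine and DNA (DRAQ5) were measured by infrared In-Cell Western imaging at 700/800 nm in RKO cells exposed to compounds for 72 hours. Percent activation used DMSO wells as minimum and 20 μM reference compound as maximum; EC30 curves fitted on triplicate wells.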
# [2] = single experiment or average of multiple experiments, read-out: Biochemical IC50 PRMT6
# [3] = RKO cells, 72 hours, mono-methyl arginine, percent activation, single experiment or average of multiple experiments, read-out: EC30 (In Cell Western data, Numerical)
# [4] = Biochemical IC50 PRMT6, single experiment or average of multiple experiments
# [5] = read-out: EC30 (In Cell Western data, Numerical, μM)
# [6] = RKO cells, 72 hours, mono-methyl arginine, percent activation
# T1 sequence (Q96LA8 with tags, fused parts or gaps): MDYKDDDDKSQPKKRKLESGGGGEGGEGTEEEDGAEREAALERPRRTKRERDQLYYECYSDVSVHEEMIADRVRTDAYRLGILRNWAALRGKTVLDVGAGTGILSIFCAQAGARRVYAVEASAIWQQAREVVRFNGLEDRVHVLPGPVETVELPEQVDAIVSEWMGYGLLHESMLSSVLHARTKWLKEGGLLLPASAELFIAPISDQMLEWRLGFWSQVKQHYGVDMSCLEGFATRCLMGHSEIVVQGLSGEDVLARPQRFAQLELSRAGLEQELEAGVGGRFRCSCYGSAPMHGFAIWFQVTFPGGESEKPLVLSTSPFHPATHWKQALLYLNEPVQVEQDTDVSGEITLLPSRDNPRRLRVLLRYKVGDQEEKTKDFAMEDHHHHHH
Structure (SMILES),"EC30 [1, 3]",IC50 (human PRMT6; [4]),further results
CN(CCN)Cc1c[nH]nc1-c1ccc(F)cc1 [Compound 1],7.4 µM,–,IC50 (human PRMT6; [2]): 0.011 µM
CN(CCN)Cc1cn(C)nc1-c1ccc(F)cc1 [Compound 3],16.2 µM,0.027 µM,–
CN(CCN)Cc1cnn(C)c1-c1ccc(F)cc1 [Compound 4],–,0.0761 µM,"EC30 [1, 5]: 12.1 µM"
COCCn1cc(CN(C)CCN)c(-c2ccc(F)cc2)n1 [Compound 5],> 20 µM,0.467 µM,–
CNCCN(C)Cc1cnn(CC2CCOCC2)c1-c1ccc(F)cc1 [Compound 12],–,0.191 µM,–
CNCCN(C)Cc1c[nH]nc1-c1cccc(N)c1 [Compound 32],–,–,"IC50 (human PRMT6; [2]): 0.0222 µM; EC30 (In Cell Western data) [1, 6]: C (“C” indicates an EC30 ≧ 12.01 μM)"
CNCCN(C)Cc1c[nH]nc1-c1ccc(CC#N)cc1 [Compound 34],–,–,"IC50 (human PRMT6; [2]): 0.0113 µM; EC30 (In Cell Western data) [1, 6]: C (“C” indicates an EC30 ≧ 12.01 μM)"
CNCCN(C)Cc1c[nH]nc1-c1ccccc1O [Compound 35],–,–,"IC50 (human PRMT6; [2]): 0.457 µM; EC30 (In Cell Western data) [1, 6]: C (“C” indicates an EC30 ≧ 12.01 μM)"
CNCCN(C)Cc1c[nH]nc1-c1cccc(OC(F)(F)F)c1 [Compound 39],–,0.0378 µM,–
CNCCN(C)Cc1c[nH]nc1-c1ccccc1NS(C)(=O)=O [Compound 41],–,–,"IC50 (human PRMT6; [2]): 8.14 µM; EC30 (In Cell Western data) [1, 6]: C (“C” indicates an EC30 ≧ 12.01 μM)"
CNCCN(C)Cc1c[nH]nc1-c1cccc(NC(C)=O)c1 [Compound 42],–,–,"IC50 (human PRMT6; [2]): 0.0476 µM; EC30 (In Cell Western data) [1, 6]: C (“C” indicates an EC30 ≧ 12.01 μM)"
CNCCN(C)Cc1c[nH]nc1-c1cccc(C(C)=O)c1 [Compound 44],–,–,"IC50 (human PRMT6; [2]): 0.0394 µM; EC30 (In Cell Western data) [1, 6]: C (“C” indicates an EC30 ≧ 12.01 μM)"
CNCCN(C)Cc1c[nH]nc1-c1ccc(-c2ccccc2)cc1 [Compound 47],–,–,"IC50 (human PRMT6; [2]): 0.00476 µM; EC30 (In Cell Western data) [1, 6]: A (“A” indicates an EC30 ≦ 3.00 μM); EC30 (In Cell Western data, Numerical, μM) ([1]; RKO cells, 72 hours, mono-methyl arginine, percent activation, single experiment or average of multiple experiments): 0.104 µM"
CNCCN(C)Cc1c[nH]nc1-c1ccccc1F [Compound 48],–,0.0441 µM,–
CC(C)Oc1ccc(-c2n[nH]cc2CN(C)CCN)cc1 [Compound 67],0.507 µM,–,–
CN(CCN)Cc1n[nH]cc1-c1ccc(F)cc1 [Compound 69],7.99 µM,0.0342 µM,–
CN(CCN)Cc1c[nH]nc1-c1cccc(C#N)c1 [Compound 70],> 20 µM,0.0189 µM,–
CN(CCN)Cc1c[nH]nc1-c1cccc(F)c1 [Compound 71],3.72 µM,0.00816 µM,–
CN(CCN)Cc1c[nH]nc1-c1ccccc1F [Compound 72],–,0.0629 µM,–
CN(CCN)Cc1c[nH]nc1-c1ccccc1 [Compound 73],14.7 µM,0.0259 µM,–

Structure (SMILES),"EC30 [1, 3]",IC50 (human PRMT6; [4]),further results
CN(CCN)Cc1c[nH]nc1-c1ccc(C(C)(C)C)cc1 [Compound 74],6.34 µM,0.0378 µM,–
CC(C)N(CCN)Cc1c[nH]nc1-c1ccc(F)cc1 [Compound 75],> 20 µM,1.64 µM,–
CN(CCN)Cc1cn(C2COC2)nc1-c1ccc(F)cc1 [Compound 77],–,0.101 µM,"EC30 [1, 5]: 12.5 µM"
NCCN(Cc1c[nH]nc1-c1ccc(F)cc1)C1CC1 [Compound 78],10.6 µM,0.0665 µM,–
CN(CCN)Cc1cnn(C2COC2)c1-c1ccc(F)cc1 [Compound 81],> 20 µM,0.105 µM,–
CN(CCN)Cc1c[nH]nc1-c1ccc(N2CCNCC2)cc1 [Compound 82],> 20 µM,0.129 µM,–
CN(CCN)Cc1nn(C)cc1-c1ccc(C#N)cc1 [Compound 83],6.75 µM,0.0528 µM,–
CN(CCN)Cc1c[nH]nc1-c1ccc(C(F)(F)F)cc1C(F)(F)F [Compound 85],–,0.701 µM,"EC30 [1, 5]: > 20 µM"
CN(CCN)Cc1c[nH]nc1-c1ccc(Cl)cc1Cl [Compound 86],5.63 µM,0.00916 µM,–
COc1ccc(-c2n[nH]cc2CN(C)CCN)c(OC)c1 [Compound 87],> 20 µM,0.103 µM,–
Cc1ccc(-c2n[nH]cc2CN(C)CCN)c(C)c1 [Compound 88],14.5 µM,0.029 µM,–
CN(CCN)Cc1c[nH]nc1-c1ccc(F)cc1Cl [Compound 89],11 µM,0.0135 µM,–
Cc1ccc(-c2n[nH]cc2CN(C)CCN)c(Cl)c1 [Compound 90],10.4 µM,0.0102 µM,–
Cc1ccc(Cl)c(-c2n[nH]cc2CN(C)CCN)c1 [Compound 91],> 20 µM,0.237 µM,–
CN(CCN)Cc1c[nH]nc1-c1ccc(C(F)(F)F)cc1 [Compound 92],0.956 µM,0.00645 µM,–
CN(CCN)Cc1c[nH]nc1-c1ccc(OC(F)(F)F)cc1 [Compound 93],1.11 µM,0.0107 µM,–
CN(CCN)Cc1c[nH]nc1-c1ccc(OC(F)F)cc1 [Compound 94],1.78 µM,0.00802 µM,–
CN(CCN)Cc1c[nH]nc1-c1ccc(Cl)cc1 [Compound 95],1.23 µM,0.00561 µM,–
CC(C)Oc1ccc(-c2n[nH]cc2CN(C)CCN)cc1Cl [Compound 168],0.066 µM,0.011 µM,–
